From ChEMBL document CHEMBL3997806, “Inhibition of veratridine-induced delayed inactivation of the voltage-sensitive sodium channel by synthetic analogs of crambescin B” (Bioorg Med Chem Lett, 2017)
Activity calls are given as the source filed them. The calls are words filed in the database; no cut-off is given here.

Tests used:
[1] = target: T1, Sodium channel protein type 2 subunit alpha (Homo sapiens, UniProt Q99250); test: Antagonist activity at human Nav1.2 expressed in HEK293T cells assessed as inhibition of VTD-induced tail current by whole cell patch clamp method relative to control; format: cell-based, HEK-293T; details: for inhibition: HEK-293T
[2] = target: T1, Sodium channel protein type 2 subunit alpha; test: Inhibition of Nav1.2 (unknown origin) by cell based assay
Target sequence in this assay (Q99250 whole entry): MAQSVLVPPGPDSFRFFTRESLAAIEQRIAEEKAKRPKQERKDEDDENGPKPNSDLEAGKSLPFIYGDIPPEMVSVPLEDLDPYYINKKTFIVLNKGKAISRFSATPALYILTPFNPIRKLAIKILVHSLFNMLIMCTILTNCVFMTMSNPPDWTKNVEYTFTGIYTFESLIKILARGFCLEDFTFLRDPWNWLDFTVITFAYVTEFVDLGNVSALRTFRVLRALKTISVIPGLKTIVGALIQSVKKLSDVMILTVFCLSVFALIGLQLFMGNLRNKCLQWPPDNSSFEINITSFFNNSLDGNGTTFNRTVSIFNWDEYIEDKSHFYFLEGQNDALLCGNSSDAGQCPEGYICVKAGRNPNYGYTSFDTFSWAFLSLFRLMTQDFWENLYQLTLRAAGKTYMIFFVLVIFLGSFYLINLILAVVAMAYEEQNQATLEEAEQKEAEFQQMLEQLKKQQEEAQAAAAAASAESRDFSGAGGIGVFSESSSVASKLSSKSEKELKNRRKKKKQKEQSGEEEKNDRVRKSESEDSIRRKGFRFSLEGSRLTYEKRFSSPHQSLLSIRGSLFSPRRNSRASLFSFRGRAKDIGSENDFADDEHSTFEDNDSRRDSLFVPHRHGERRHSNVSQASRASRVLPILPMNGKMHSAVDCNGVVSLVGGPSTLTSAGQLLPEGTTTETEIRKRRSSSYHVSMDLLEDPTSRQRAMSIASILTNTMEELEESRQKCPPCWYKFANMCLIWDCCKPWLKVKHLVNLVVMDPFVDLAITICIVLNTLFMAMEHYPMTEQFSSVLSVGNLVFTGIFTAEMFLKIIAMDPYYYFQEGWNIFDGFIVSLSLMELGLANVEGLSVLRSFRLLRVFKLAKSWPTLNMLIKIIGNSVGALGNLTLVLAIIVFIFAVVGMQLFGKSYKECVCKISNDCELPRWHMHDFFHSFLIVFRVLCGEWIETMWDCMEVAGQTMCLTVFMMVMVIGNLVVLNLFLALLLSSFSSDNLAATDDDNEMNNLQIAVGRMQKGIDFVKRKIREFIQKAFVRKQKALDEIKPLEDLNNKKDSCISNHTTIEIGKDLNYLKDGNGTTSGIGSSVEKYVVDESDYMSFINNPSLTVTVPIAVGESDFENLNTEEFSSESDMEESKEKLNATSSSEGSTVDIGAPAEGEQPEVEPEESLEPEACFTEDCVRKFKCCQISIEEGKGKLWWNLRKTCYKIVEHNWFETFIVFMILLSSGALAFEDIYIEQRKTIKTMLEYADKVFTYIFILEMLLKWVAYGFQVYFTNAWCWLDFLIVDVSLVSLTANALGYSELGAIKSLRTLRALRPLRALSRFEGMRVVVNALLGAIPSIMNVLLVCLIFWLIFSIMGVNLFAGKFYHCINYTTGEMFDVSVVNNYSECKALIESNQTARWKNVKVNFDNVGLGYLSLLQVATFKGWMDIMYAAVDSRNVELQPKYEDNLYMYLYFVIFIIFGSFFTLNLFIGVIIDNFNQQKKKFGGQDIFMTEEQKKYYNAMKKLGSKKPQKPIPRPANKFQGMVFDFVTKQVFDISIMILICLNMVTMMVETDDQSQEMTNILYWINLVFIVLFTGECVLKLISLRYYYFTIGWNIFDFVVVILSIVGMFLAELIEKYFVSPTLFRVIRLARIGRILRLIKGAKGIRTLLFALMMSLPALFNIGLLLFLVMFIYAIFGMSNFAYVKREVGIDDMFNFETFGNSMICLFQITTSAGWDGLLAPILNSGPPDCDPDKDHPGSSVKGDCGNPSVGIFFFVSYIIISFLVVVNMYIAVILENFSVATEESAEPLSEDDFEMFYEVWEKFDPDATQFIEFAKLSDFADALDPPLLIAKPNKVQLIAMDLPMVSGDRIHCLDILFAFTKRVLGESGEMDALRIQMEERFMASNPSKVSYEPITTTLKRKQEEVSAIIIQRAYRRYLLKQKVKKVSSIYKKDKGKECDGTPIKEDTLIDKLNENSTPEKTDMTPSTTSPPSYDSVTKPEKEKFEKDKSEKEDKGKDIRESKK

[3] = target: T1, Sodium channel protein type 2 subunit alpha; test: Antagonist activity at human Nav1.2 expressed in HEK293T cells assessed as inhibition of VTD-induced sustained current by whole cell patch clamp method relative to control; format: cell-based, HEK-293T; details: for inhibition: HEK-293T
[4] = target: T1, Sodium channel protein type 2 subunit alpha; test: Antagonist activity at human Nav1.2 expressed in HEK293T cells assessed as inhibition of VTD-induced peak current up to 10 nM by whole cell patch clamp method relative to control; format: cell-based; details: HEK-293T
Target sequence in this assay (Q99250 whole entry, looked up): as the sequence (Q99250 whole entry) above

[5] = target: T1, Sodium channel protein type 2 subunit alpha; test: Ratio of IC50 for Nav1.2 (unknown origin) by cell based assay to IC50 for human Nav1.2 expressed in HEK293T cells assessed as inhibition of VTD-induced tail current
Target sequence in this assay (Q99250 whole entry, looked up): as the sequence (Q99250 whole entry) above

[6] = species: Mus musculus; test: Antagonist activity at VSSC in mouse Neuro2a cells assessed as inhibition of peak current at holding potential of -100mV at 100 nM by patch-clamp method; format: cell-based
[7] = target: Sodium channel protein type 9 subunit alpha (Homo sapiens) (UniProt Q15858); test: Antagonist activity at human Nav1.7 expressed in HEK293T cells assessed as inhibition of VTD-induced peak current at 1 uM by whole cell patch clamp method relative to control; format: cell-based; details: HEK-293T
[8] = target: Sodium channel protein type 8 subunit alpha (Homo sapiens) (UniProt Q9UQD0); test: Antagonist activity at human Nav1.6 expressed in HEK293T cells assessed as inhibition of VTD-induced tail current at 1 uM at holding potential of -100mV by whole cell patch clamp method relative to control; format: cell-based; details: HEK-293T
[9] = target: Sodium channel protein type 8 subunit alpha (Homo sapiens) (UniProt Q9UQD0); test: Antagonist activity at human Nav1.6 expressed in HEK293T cells assessed as inhibition of VTD-induced peak current at 1 uM by whole cell patch clamp method relative to control; format: cell-based; details: HEK-293T
[10] = target: Sodium channel protein type 8 subunit alpha (Homo sapiens) (UniProt Q9UQD0); test: Antagonist activity at human Nav1.6 expressed in HEK293T cells assessed as inhibition of VTD-induced sustained current at 1 uM by whole cell patch clamp method relative to control; format: cell-based; details: HEK-293T
[11] = target: Sodium channel protein type 9 subunit alpha (Homo sapiens) (UniProt Q15858); test: Antagonist activity at human Nav1.7 expressed in HEK293T cells assessed as inhibition of VTD-induced sustained current at 1 uM by whole cell patch clamp method relative to control; format: cell-based; details: HEK-293T
[12] = target: Sodium channel protein type 9 subunit alpha (Homo sapiens) (UniProt Q15858); test: Antagonist activity at human Nav1.7 expressed in HEK293T cells assessed as inhibition of VTD-induced tail current at 1 uM at holding potential of -100mV by whole cell patch clamp method relative to control; format: cell-based; details: HEK-293T
[13] = target: T1, Sodium channel protein type 2 subunit alpha; test: Ratio of IC50 for Nav1.2 (unknown origin) by cell based assay to IC50 for human Nav1.2 expressed in HEK293T cells assessed as inhibition of VTD-induced sustained current
Target sequence in this assay (Q99250 whole entry, looked up): as the sequence (Q99250 whole entry) above

[14] = target: Sodium channel protein type 9 subunit alpha (Homo sapiens) (UniProt Q15858); details: HEK-293T, 30 nM
Description: Antagonist activity at human Nav1.7 expressed in HEK293T cells assessed as inhibition of VTD-induced tail current at 30 nM at holding potential of -100mV by whole cell patch clamp method relative to control

[15] = target: Sodium channel protein type 9 subunit alpha (Homo sapiens) (UniProt Q15858); details: HEK-293T, 30 nM; remark: listed apart in the source
Description: Antagonist activity at human Nav1.7 expressed in HEK293T cells assessed as inhibition of VTD-induced sustained current at 30 nM by whole cell patch clamp method relative to control

[16] = target: Sodium channel protein type 8 subunit alpha (Homo sapiens) (UniProt Q9UQD0); details: HEK-293T, 30 nM
Description: Antagonist activity at human Nav1.6 expressed in HEK293T cells assessed as inhibition of VTD-induced sustained current at 30 nM by whole cell patch clamp method relative to control

[17] = target: Sodium channel protein type 9 subunit alpha (Homo sapiens) (UniProt Q15858); details: HEK-293T, 30 nM; remark: listed apart in the source
Description: Antagonist activity at human Nav1.7 expressed in HEK293T cells assessed as inhibition of VTD-induced peak current at 30 nM by whole cell patch clamp method relative to control

[18] = target: Sodium channel protein type 8 subunit alpha (Homo sapiens) (UniProt Q9UQD0); details: HEK-293T, 30 nM; remark: listed apart in the source
Description: Antagonist activity at human Nav1.6 expressed in HEK293T cells assessed as inhibition of VTD-induced tail current at 30 nM at holding potential of -100mV by whole cell patch clamp method relative to control

[19] = target: Sodium channel protein type 8 subunit alpha (Homo sapiens) (UniProt Q9UQD0); details: HEK-293T, 30 nM; remark: listed apart in the source
Description: Antagonist activity at human Nav1.6 expressed in HEK293T cells assessed as inhibition of VTD-induced peak current at 30 nM by whole cell patch clamp method relative to control

Chain of Sodium channel protein type 9 subunit alpha (Homo sapiens) (Q15858 whole entry, looked up): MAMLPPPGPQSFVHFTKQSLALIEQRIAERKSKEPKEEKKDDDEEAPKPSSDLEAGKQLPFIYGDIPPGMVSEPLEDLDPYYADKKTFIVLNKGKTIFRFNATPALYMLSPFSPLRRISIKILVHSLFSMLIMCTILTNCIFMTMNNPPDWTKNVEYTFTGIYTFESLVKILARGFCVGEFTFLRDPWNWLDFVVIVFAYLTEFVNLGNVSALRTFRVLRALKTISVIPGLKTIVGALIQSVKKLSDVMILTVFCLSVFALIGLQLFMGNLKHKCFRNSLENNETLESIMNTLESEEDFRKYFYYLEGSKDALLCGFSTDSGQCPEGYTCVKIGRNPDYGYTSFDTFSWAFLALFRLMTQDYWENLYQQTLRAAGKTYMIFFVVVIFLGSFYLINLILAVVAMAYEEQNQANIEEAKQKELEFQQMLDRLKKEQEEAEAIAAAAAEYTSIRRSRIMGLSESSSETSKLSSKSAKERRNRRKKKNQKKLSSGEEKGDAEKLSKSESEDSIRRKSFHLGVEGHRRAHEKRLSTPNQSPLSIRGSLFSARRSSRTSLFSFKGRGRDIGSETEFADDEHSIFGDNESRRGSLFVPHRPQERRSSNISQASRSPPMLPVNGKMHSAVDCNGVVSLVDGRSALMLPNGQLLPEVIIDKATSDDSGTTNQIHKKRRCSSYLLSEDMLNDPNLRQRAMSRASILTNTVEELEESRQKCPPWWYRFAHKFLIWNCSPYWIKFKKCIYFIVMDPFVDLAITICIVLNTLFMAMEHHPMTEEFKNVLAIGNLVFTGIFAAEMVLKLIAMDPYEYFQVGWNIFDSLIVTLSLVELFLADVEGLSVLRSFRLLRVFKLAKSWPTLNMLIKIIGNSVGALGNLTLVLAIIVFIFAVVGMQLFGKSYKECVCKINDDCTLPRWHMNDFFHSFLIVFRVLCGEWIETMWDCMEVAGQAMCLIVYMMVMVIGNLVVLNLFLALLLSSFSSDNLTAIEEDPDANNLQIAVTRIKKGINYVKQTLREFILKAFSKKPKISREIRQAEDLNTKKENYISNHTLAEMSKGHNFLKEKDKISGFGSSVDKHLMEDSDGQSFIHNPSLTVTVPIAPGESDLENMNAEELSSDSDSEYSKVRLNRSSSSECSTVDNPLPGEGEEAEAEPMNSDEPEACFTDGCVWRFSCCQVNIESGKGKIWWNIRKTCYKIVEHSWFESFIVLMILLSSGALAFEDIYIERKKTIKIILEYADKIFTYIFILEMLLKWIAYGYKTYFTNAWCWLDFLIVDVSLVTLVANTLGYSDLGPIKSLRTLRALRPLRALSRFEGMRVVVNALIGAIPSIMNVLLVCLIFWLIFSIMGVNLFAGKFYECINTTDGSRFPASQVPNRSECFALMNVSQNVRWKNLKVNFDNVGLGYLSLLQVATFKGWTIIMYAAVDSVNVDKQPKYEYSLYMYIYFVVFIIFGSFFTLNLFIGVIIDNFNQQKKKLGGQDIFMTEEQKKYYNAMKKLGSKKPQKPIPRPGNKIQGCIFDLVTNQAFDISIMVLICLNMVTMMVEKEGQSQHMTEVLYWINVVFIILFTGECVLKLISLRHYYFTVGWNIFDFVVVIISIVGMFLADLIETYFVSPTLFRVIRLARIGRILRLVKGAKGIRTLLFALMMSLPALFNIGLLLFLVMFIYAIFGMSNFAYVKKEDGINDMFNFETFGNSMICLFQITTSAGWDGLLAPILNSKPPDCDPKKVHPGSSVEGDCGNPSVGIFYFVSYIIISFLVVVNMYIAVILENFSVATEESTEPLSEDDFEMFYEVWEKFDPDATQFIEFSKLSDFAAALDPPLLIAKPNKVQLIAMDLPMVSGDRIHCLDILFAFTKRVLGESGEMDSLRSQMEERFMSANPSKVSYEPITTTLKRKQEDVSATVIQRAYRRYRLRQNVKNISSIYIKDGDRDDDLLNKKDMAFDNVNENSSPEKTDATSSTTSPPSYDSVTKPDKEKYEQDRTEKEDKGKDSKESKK

| SMILES | IC50 [1] [nM] | inhibition [1] | EC50 [2] [nM] | IC50 [3] [nM] | inhibition [3] | inhibition [4] | inhibition [6] | other results |
| --- | --- | --- | --- | --- | --- | --- | --- | --- |
| CCCCCCCCCC[C@H]1C[C@@]2(CCCO2)NC(=N)N1 | 2 | Dose-dependent effect | 120 | 2.1 | Dose-dependent effect | Active |  | Ratio IC50 [5]: 60 |
| CCCCCCCCCC[C@@H]1NC(=N)N[C@]2(CCCO2)[C@@H]1C(=O)O | 35 | Dose-dependent effect | 79 | 7.5 | Dose-dependent effect | Active | inactive |  |
| CCCCCCCCCCC1NC(=N)NC2(CCCO2)C1C(=O)O (racemic) |  |  |  |  |  |  |  | inhibition [7]: Active; inhibition [8]: Active; inhibition [9]: Active; inhibition [10]: Active; inhibition [11]: Active; inhibition [12]: Active |
| CCCCCCCCCC[C@H]1NC(=N)N[C@@]2(CCCO2)[C@H]1C(=O)O | 170 | Dose-dependent effect | 5.3 | 26 | Dose-dependent effect | Active | inactive |  |
| CCCCCCCCCC[C@@H]1C[C@]2(CCCO2)NC(=N)N1 | 0.28 | Dose-dependent effect | 12 | 0.45 | Dose-dependent effect |  |  | Ratio IC50 [13]: 43 |
| NC1=N[C@H](O)[C@H]2[C@H]3O[C@]4(O)O[C@@H]([C@@H](O)[C@@]2(N1)[C@@H]4O)[C@]3(O)CO |  |  |  |  |  |  | Active | inhibition [14]: Active; inhibition [15]: Active; inhibition [16]: Active; inhibition [17]: Active; inhibition [18]: Active; inhibition [19]: Active |
